Experimental data published in paper PMC6943742, “Peptide/Peptoid Hybrid Oligomers: The Influence of Hydrophobicity and Relative Side-Chain Length on Antibacterial Activity and Cell Selectivity” (Molecules, 2019).
Values after ≈ are worked out from the molar mass of the structure shown. Read-outs that look alike come from different tables or passages of the source. Non-standard residues stand in square brackets, D forms with d. Residues, ends and D or L forms follow the SMILES beside them. N(5-aminopentyl)Gly = NCCCCCNCC(=O)O; Gly(NCH2CH2Ph) = O=C(O)CNCCc1ccccc1; Gly(N-2-aminoethyl) = NCCNCC(=O)O; hPhe = N[C@@H](CCc1ccccc1)C(=O)O; hLys = NCCCCC[C@H](N)C(=O)O; Nphe = O=C(O)CNCc1ccccc1; Orn = NCCC[C@H](N)C(=O)O; Dab = NCC[C@H](N)C(=O)O

Experiments:
E. faecalis ATCC 29212 = assay type: cell-based
Description: (§1) MIC values were evaluated by using the modified Hancock lab protocol in non-binding polystyrene microtitre plates, with bacterial suspensions of ∼2 × 10^5 CFU/mL in Mueller-Hinton broth (Difco, Sparks MD, USA), with Mg^2+ and Ca^2+ concentrations of 4 mg/L each. The compounds were dissolved in H2O and diluted in 0.01% acetic acid, 0.2% BSA (final concentration). Aliquots of 11 µL of 10 × test compounds were then transferred to the appropriate wells with bacterial suspensions. For preparation and transfer of the solutions of the compounds, low-binding sterile tubes and tips (Axygen, Union City CA, USA) were used. After 20 h incubation of covered plates at 35 °C (±2 °C) with circular shaking at 220 rpm, the MICs were read. The antibacterial activity of peptidomimetics was tested against E. coli ATCC 25922, K. pneumoniae ATCC 13883, P. aeruginosa ATCC 27853, P. aeruginosa PAO1, A. baumannii ATCC 19606, S. aureus ATCC 29213, and E. faecalis ATCC 29212.

K. pneumoniae ATCC 13883 = assay type: cell-based
Description: as §1

P. aeruginosa PAO1 = assay type: cell-based
Description: as §1

S. aureus ATCC 29213 = assay type: cell-based
Description: as §1

E. coli ATCC 25922 = assay type: cell-based
Description: as §1

P. aeruginosa ATCC 27853 = assay type: cell-based
Description: as §1

A. baumannii ATCC 19606 = assay type: cell-based
Description: as §1

in vitro = assay type: cell-based; details: human, Hemolytic Activity (percentage hemolysis)
Description: The lysis of human red blood cells was measured as previously described, with modifications. In brief, freshly drawn human red blood cells (hRBCs) were washed three times with PBS buffer and centrifuged two times for 5 min at 2500 rpm. A two-fold serial dilution of peptidomimetics in PBS buffer was added to each well in a sterile polypropylene V-bottom 96-well plate to the total volume of 75 μL. A 0.5% v/v hRBC suspension (75 μL in PBS buffer) was added to each well to reach a final volume of 150 μL in each well. The plate was incubated (37 °C) for 60 min, and then the cells were subsequently pelleted by centrifugation at 1000 rpm for 5 min. The supernatants (50 μL) were transferred to clear, flat-bottomed plastic 96-well plates. The concentration of hemoglobin was detected by measuring the OD at 405 nm. The OD of cells incubated with 0.1% SDS defined 100% hemolysis, while the OD of cells incubated with PBS buffer defined 0% hemolysis. The concentrations tested were 200, 400, and 800 μg/mL (only average values for the highest concentration are stated in Table 2).

[1] = tested on: HepG2 cell line ATCC HB-8065; assay: in vitro; assay type: cell-based; details: 48 h
Description: Side effects affecting cell viability were estimated on the HepG2 cell line ATCC HB-8065. In brief, HepG2 cells were seeded in flat-bottomed 96-well plates at a concentration of 5000 cells per well. At 80−90% confluency, the cells were incubated for 24 h in a humidified incubator (5% CO2, 37 °C). The medium was removed, and the cells were incubated for 48 h in a humidified incubator (5% CO2, 37 °C) with compounds in two-fold serial dilutions. An MTT assay was then performed as previously described. In brief, after incubation with the test compounds, the culture medium was removed and fresh medium with 0.2 mg/mL MTT was added in each well of the plate. After incubation (3 h, 37 °C, 5% CO2), the medium with MTT was removed, and 200 μL dimethyl sulfoxide were added at once to each sample. Absorbance of MTT was measured using spectrophotometer TECAN Infinite M1000 at 540 nm. The relative viability was calculated by using the formula: ODtreated cells × 100/ODcontrol cells. The IC50 values are calculated by using the program Graph Pad Prism® 5.0. For all compounds, the test range was 10–1280 μg/mL.

[2] = Relative hydrophobicity by RP-HPLC (% MeCN at peak elution); assay type: physicochemical; details: RP-HPLC gradient 0 → 60% B during 10 min; % MeCN at peak elution calculated from retention time
Description: The relative hydrophobicity of each peptidomimetic was measured by reverse-phase high-performance liquid chromatography (RP-HPLC). Typically, the RP-HPLC retention time (or percentage acetonitrile at peak elution) constitutes the preferred measure that allows for comparison of relative hydrophobicity, while log P values of polycationic peptides or peptidomimetics normally are considered unsuitable due to the extreme hydrophilic nature of such compounds [11, 45, 57, 58, 59, 60]. […] For both subgroups III (with cationic amino acid residues and the peptoid analogue of Phe, NPhe, i.e., 9–12) and IV (with cationic amino acid residues and the peptoid analogue of hPhe, NhPhe, i.e., 13–16) only minor differences in hydrophobicity were seen. These observations infer that, when the cationic residues are of a peptoid nature, the side-chain length of these has a […] influence on the hydrophobicity. […] Thus, introduction of additional six methylene groups results, as expected, in increased hydrophobicity.
Starting materials and solvents were purchased from commercial suppliers (Iris Biotech, Markredwitz, Germany; Fluorochem, Hadfield, United Kingdom; and Merck, Darmstadt, Germany) and used without further purification. Water used for analytical and preparative high-performance liquid chromatography (HPLC) was filtered through a 0.22-μm Millipore membrane filter. Purity and retention time of each peptidomimetic were determined by analytical UHPLC by using a Phenomenex Luna C18(2) HST column (100 mm × 3 mm; particle size: 2.5 μm; pore size: 100 Å) on a Shimadzu Prominence and Shimadzu Nexera system using an aqueous acetonitrile (MeCN) gradient with 0.1% trifluoroacetic acid (TFA) added (eluent A: 5:95 MeCN–H2O + 0.1% TFA, eluent B: 95:5 MeCN–H2O + 0.1% TFA); a flow rate of 0.5 mL/min was used. For elution of peptidomimetics, a linear gradient of 0% to 60% B during 10 min was used with UV detection at λ = 220 nm. […] For each peptidomimetic, the percentage of MeCN at peak elution was calculated from the retention time by using the following formula:(1) %MeCN = 0.95 (0.6Rt/10 min.) + 0.05 (1−0.6Rt/10 min.).

Row | Molecule | MIC (E. faecalis ATCC 29212; ATCC 29212, 20 h) [µg/mL] | MIC (K. pneumoniae ATCC 13883; ATCC 13883, 20 h) [µg/mL] | MIC (P. aeruginosa PAO1; PAO1, 20 h) [µg/mL] | MIC (S. aureus ATCC 29213; ATCC 29213, 20 h) [µg/mL] | MIC (E. coli ATCC 25922; ATCC 25922, 20 h) [µg/mL] | MIC (P. aeruginosa ATCC 27853; ATCC 27853, 20 h) [µg/mL] | MIC (A. baumannii ATCC 19606; ATCC 19606, 20 h) [µg/mL] | hemolysis at 60 min, 800 µg/mL (in vitro) [%] | IC50 for inhibiting growth of HepG2 cells [1] [µg/mL] | MIC (E. faecalis ATCC 29212; E. faecalis ATCC 29212, Gram-positive, 20 h, Mueller-Hinton broth) [µg/mL] | MIC (K. pneumoniae ATCC 13883; K. pneumoniae ATCC 13883, Gram-negative, 20 h, Mueller-Hinton broth) [µg/mL] | MIC (P. aeruginosa PAO1; P. aeruginosa PAO1, Gram-negative, 20 h, Mueller-Hinton broth) [µg/mL] | MIC (S. aureus ATCC 29213; S. aureus ATCC 29213, Gram-positive, 20 h, Mueller-Hinton broth) [µg/mL] | MIC (E. coli ATCC 25922; E. coli ATCC 25922, Gram-negative, 20 h, Mueller-Hinton broth) [µg/mL] | MIC (P. aeruginosa ATCC 27853; P. aeruginosa ATCC 27853, Gram-negative, 20 h, Mueller-Hinton broth) [µg/mL] | MIC (A. baumannii ATCC 19606; A. baumannii ATCC 19606, Gram-negative, 20 h, Mueller-Hinton broth) [µg/mL] | Activity against E. faecalis (in words) (E. faecalis ATCC 29212; E. faecalis) | Activity against S. aureus (in words) (S. aureus ATCC 29213; S. aureus) | Hydrophobicity (% MeCN at elution) [2] [%]
1 | NCC[C@H](NC(=O)CN(CCc1ccccc1)C(=O)[C@H](CCN)NC(=O)CN(CCc1ccccc1)C(=O)[C@H](CCN)NC(=O)CN(CCc1ccccc1)C(=O)[C@H](CCN)NC(=O)CN(CCc1ccccc1)C(=O)[C@H](CCN)NC(=O)CN(CCc1ccccc1)C(=O)[C@@H](N)CCN)C(=O)N(CCc1ccccc1)CC(N)=O [Peptidomimetic 13] (H-[Dab][Gly(NCH2CH2Ph)][Dab][Gly(NCH2CH2Ph)][Dab][Gly(NCH2CH2Ph)][Dab][Gly(NCH2CH2Ph)][Dab][Gly(NCH2CH2Ph)][Dab][Gly(NCH2CH2Ph)]-NH2) | >64 | 32 (≈ 20.2 µM) | 2 to 4 | >64 | 4 (≈ 2.52 µM) | 2 (≈ 1.26 µM) | >64 | 53 | 261 | – | – | – | – | – | – | – | – | – | –
2 | NCCC[C@H](NC(=O)CN(Cc1ccccc1)C(=O)[C@H](CCCN)NC(=O)CN(Cc1ccccc1)C(=O)[C@H](CCCN)NC(=O)CN(Cc1ccccc1)C(=O)[C@H](CCCN)NC(=O)CN(Cc1ccccc1)C(=O)[C@H](CCCN)NC(=O)CN(Cc1ccccc1)C(=O)[C@@H](N)CCCN)C(=O)N(CC(N)=O)Cc1ccccc1 [Peptidomimetic 10] (H-[Orn][Nphe][Orn][Nphe][Orn][Nphe][Orn][Nphe][Orn][Nphe][Orn][Nphe]-NH2) | >64 | >64 | 4 to 8 | >64 | 4 to 8 | 2 to 4 | – | 10 | 923 | – | – | – | – | – | – | – | – | – | –
3 | Colistin [reference compound] | – | – | – | – | – | – | – | – | – | >64 | 0.25 | 0.5 | >64 | 0.125 to 0.25 | 0.125 to 0.25 | 0.5 | – | – | –
4 | NCCNCC(=O)N[C@@H](CCc1ccccc1)C(=O)N(CCN)CC(=O)N[C@@H](CCc1ccccc1)C(=O)N(CCN)CC(=O)N[C@@H](CCc1ccccc1)C(=O)N(CCN)CC(=O)N[C@@H](CCc1ccccc1)C(=O)N(CCN)CC(=O)N[C@@H](CCc1ccccc1)C(=O)N(CCN)CC(=O)N[C@@H](CCc1ccccc1)C(N)=O [Peptidomimetic 5] (H-[Gly(N-2-aminoethyl)][hPhe][Gly(N-2-aminoethyl)][hPhe][Gly(N-2-aminoethyl)][hPhe][Gly(N-2-aminoethyl)][hPhe][Gly(N-2-aminoethyl)][hPhe][Gly(N-2-aminoethyl)][hPhe]-NH2) | 32 (≈ 20.2 µM) | 64 (≈ 40.4 µM) | 16 (≈ 10.1 µM) | 8 (≈ 5.05 µM) | 4 (≈ 2.52 µM) | 4 (≈ 2.52 µM) | >64 | – | 307 | – | – | – | – | – | – | – | weak activity | moderate activity | 43.5
5 | NCCCCC[C@H](NC(=O)CN(CCc1ccccc1)C(=O)[C@H](CCCCCN)NC(=O)CN(CCc1ccccc1)C(=O)[C@H](CCCCCN)NC(=O)CN(CCc1ccccc1)C(=O)[C@H](CCCCCN)NC(=O)CN(CCc1ccccc1)C(=O)[C@H](CCCCCN)NC(=O)CN(CCc1ccccc1)C(=O)[C@@H](N)CCCCCN)C(=O)N(CCc1ccccc1)CC(N)=O [Peptidomimetic 16] (H-[hLys][Gly(NCH2CH2Ph)][hLys][Gly(NCH2CH2Ph)][hLys][Gly(NCH2CH2Ph)][hLys][Gly(NCH2CH2Ph)][hLys][Gly(NCH2CH2Ph)][hLys][Gly(NCH2CH2Ph)]-NH2) | >64 | >64 | 32 (≈ 17.4 µM) | >64 | 4 (≈ 2.18 µM) | 16 (≈ 8.71 µM) | – | 9 | 410 | – | – | – | – | – | – | – | – | – | 41.1
6 | NCC[C@H](NC(=O)CN(Cc1ccccc1)C(=O)[C@H](CCN)NC(=O)CN(Cc1ccccc1)C(=O)[C@H](CCN)NC(=O)CN(Cc1ccccc1)C(=O)[C@H](CCN)NC(=O)CN(Cc1ccccc1)C(=O)[C@H](CCN)NC(=O)CN(Cc1ccccc1)C(=O)[C@@H](N)CCN)C(=O)N(CC(N)=O)Cc1ccccc1 [Peptidomimetic 9] (H-[Dab][Nphe][Dab][Nphe][Dab][Nphe][Dab][Nphe][Dab][Nphe][Dab][Nphe]-NH2) | >64 | 32 to 64 | 2 (≈ 1.33 µM) | >64 | 2 to 4 | 1 (≈ 0.666 µM) | – | 79 | 326 | – | – | – | – | – | – | – | – | – | –
7 | NCCCCCNCC(=O)N[C@@H](CCc1ccccc1)C(=O)N(CCCCCN)CC(=O)N[C@@H](CCc1ccccc1)C(=O)N(CCCCCN)CC(=O)N[C@@H](CCc1ccccc1)C(=O)N(CCCCCN)CC(=O)N[C@@H](CCc1ccccc1)C(=O)N(CCCCCN)CC(=O)N[C@@H](CCc1ccccc1)C(=O)N(CCCCCN)CC(=O)N[C@@H](CCc1ccccc1)C(N)=O [Peptidomimetic 8] (H-[N(5-aminopentyl)Gly][hPhe][N(5-aminopentyl)Gly][hPhe][N(5-aminopentyl)Gly][hPhe][N(5-aminopentyl)Gly][hPhe][N(5-aminopentyl)Gly][hPhe][N(5-aminopentyl)Gly][hPhe]-NH2) | >64 | 64 (≈ 34.8 µM) | 64 (≈ 34.8 µM) | >64 | 2 (≈ 1.09 µM) | 64 (≈ 34.8 µM) | – | 9 | 266 | – | – | – | – | – | – | – | – | – | 40.9
